From PubChem BioAssay (NCI) come the findings set out here.

Each structure is given as a SMILES string.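 All cell lines were grown in 96-well plates and treated with compound for 48 hours. TGI marks complete inhibition of growth.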

Common to all, as to test: growth of human tumour cells (NCI), 48 h
Experiment [1] deals with UO-31 renal.
Experiment [2] relates to SF-295 CNS.
In experiment [3] the test system is COLO 205 colon.
Experiment [4] concerns U251 CNS.
For experiment [5], the system named is ACHN renal.
Experiment [6] deals with SF-539 CNS.
In experiment [7] the test system is LXFL 529 NSCLC.
Experiment [8] concerns HCT-116 colon.
Experiment [9] has as its system SW-620 colon.
The test system of experiment [10] is HOP-92 NSCLC.

On to `COc1c(OC(C)=O)cc2c(OC(C)=O)c1CC(C)CC(OC)C(O)C(C)/C=C(\C)C(OC(N)=O)C(OC)/C=C\C=C(/C)C(=O)N2` (stereo not given), for which the TGI in [1], in [2], in experiment [3], in experiment [4], in experiment [5] and in experiment [6] was more than 100 µM each time. Also, the TGI in experiment [7], in [8], in experiment [9] and in experiment [10] was more than 100 µM each time.

On to `CC(=O)NNc1nc(C)c(C(=O)NNC(=O)C(=O)Nc2ccc(C)c(C)c2)s1`, for which the TGI in experiment [1], in experiment [2], in experiment [3], in experiment [4], in [5] and in experiment [6] was more than 100 µM in each case. For the same compound, the TGI in [7], in experiment [8], in [9] and in experiment [10] was more than 100 µM in each case.

With `O=C(CC(=O)N1N=C(n2ccc3ccccc32)CC1c1ccccc1)Nc1cccc(Cl)c1` (stereo not given), the TGI in [1], in experiment [2], in [3], in experiment [4], in experiment [5] and in [6] was more than 100 µM each time. In addition, the TGI in [7], in experiment [8], in experiment [9] and in [10] was more than 100 µM throughout.

Regarding `COC(=O)CCC(NC(=S)N/N=C(\C)c1ccccn1)C(=O)OC` (stereo not given), the TGI in experiment [1], in experiment [2], in experiment [3], in experiment [4], in experiment [5] and in experiment [6] was more than 100 µM each time. The TGI in experiment [7], in experiment [8], in experiment [9] and in experiment [10] was more than 100 µM in each case.

On to `Cc1ccc2nc3c(Cl)cc(=O)cc-3sc2c1`, for which the TGI was more than 100 µM in [1]; 63.2 µM in experiment [2]; 36.3 µM in experiment [3]; 45.5 µM in experiment [4]; 54.4 µM in experiment [5]; 11.5 µM in experiment [6]. Further, the TGI in experiment [7] came to 63.1 µM; in experiment [8] it was 32.2 µM; in [9], 43.5 µM; in experiment [10], 36.7 µM.

Regarding `O=C1C=C2S[C@H]3C[C@]2(C=C1Br)c1c(c(O)c2c4c1=NCCC=4C=N2)N3`, the TGI in experiment [1] was found to be 2.94 µM; in experiment [2], 2.83 µM; in experiment [3], 0.21 µM; in experiment [4], 3.17 µM; in experiment [5], 1.76 µM; in [6] it was 3.03 µM. Also, the TGI in experiment [7] came to 0.395 µM; in experiment [8] it was 0.342 µM; in experiment [9], 0.237 µM; in experiment [10] it was 2.28 µM.

Turning to `CCOc1ccccc1NC(=O)C(=O)CC(=O)C1=C(C)Nc2ccccc2S1`, the TGI in [1], in experiment [2], in [3], in experiment [4], in [5] and in experiment [6] was more than 100 µM each time. Also, the TGI in experiment [7], in [8], in [9] and in [10] was more than 100 µM throughout.

As to `OC(c1ccccc1)(c1ccccc1)c1ccccn1`, the TGI in [1], in [2], in experiment [3], in experiment [4], in experiment [5] and in experiment [6] was more than 100 µM in each case. The TGI in [7], in [8], in experiment [9] and in experiment [10] was more than 100 µM throughout.

As for `CCCOc1ccc(/C(Cl)=C(\C=O)c2ccc(OC)c(OC)c2)cc1OCCC`, the TGI in experiment [1] is more than 100 µM; in experiment [2], 88.3 µM; in experiment [3], 14.6 µM; in experiment [4] it was 33.9 µM; in experiment [5], more than 100 µM; in experiment [6] it was 55.1 µM. The TGI is 80.9 µM in experiment [7], 10.8 µM in [8], more than 100 µM in experiment [9] and 51.2 µM in experiment [10].

In the case of `C/C=C/C=N/N(c1nnc(-c2ccccc2)c(-c2ccccc2)n1)S(=O)(=O)c1ccc(C)cc1`, the TGI in experiment [1] came out at 19.6 µM; in experiment [2] it was 22.9 µM; in experiment [3] it was 35.7 µM; in [4], 12.7 µM; in experiment [5], 24.3 µM; in experiment [6] it was 23.8 µM. Further, the TGI is 19.3 µM in [7], 28 µM in experiment [8], 14.9 µM in [9] and 31.3 µM in [10].

As for `CC(C)(O)[C@@H]1CCC(C)([C@H]2[C@@H](O)CC3(C)C4CC(OC5OC(CO)C(O)C(O)C5O)C5C(C)(C)[C@@H](OC6OCC(O)C(O)C6O)CC[C@@]56C[C@@]46CC[C@]23C)O1` (stereo not given in full), the TGI in [1], in experiment [2], in [3], in experiment [4], in experiment [5] and in experiment [6] was more than 100 µM throughout. In addition, the TGI in [7], in [8], in experiment [9] and in experiment [10] was more than 100 µM in each case.

`O=c1[nH]c(=S)[nH]c2c1sc(=S)n2-c1ccccc1`: the TGI in experiment [1], in experiment [2], in experiment [3], in experiment [4], in experiment [5] and in experiment [6] was more than 100 µM each time. In addition, the TGI in experiment [7], in experiment [8], in experiment [9] and in experiment [10] was more than 100 µM each time.
